Test results from ChEMBL document CHEMBL5244273, “Tuberculosis: An Overview of the Immunogenic Response, Disease Progression, and Medicinal Chemistry Efforts in the Last Decade toward the Development of Potential Drugs for Extensively Drug-Resistant Tuberculosis Strains” (J Med Chem, 2021).
Converted amounts (≈) assume the structure as drawn.

Tested on: Mycobacterium tuberculosis
Assay: Antimycobacterial activity against Mycobacterium tuberculosis H37Rv
Assay type: functional

Structure (SMILES) | MIC [µg/mL] | MIC90 [µM] | MIC99 [µM] | MIC50 [µg/mL]
NC(=O)N1N=C(c2ccc3oc(S)nc3c2)CC1c1cccs1 (stereo unspecified) | 12.5 (≈ 36.3 µM) |  |  | 
CC(=O)N1N=C(c2ccc3oc(N)nc3c2)CC1c1cccs1 (stereo unspecified) | 6.25 (≈ 19.1 µM) |  |  | 
CC(=O)N1N=C(c2ccc3oc(NC(=O)c4ccccc4)nc3c2)CC1c1cccs1 (stereo unspecified) | 6.25 (≈ 14.5 µM) |  |  | 
CC(=O)N1N=C(c2ccc3oc(-c4ccccn4)nc3c2)CC1c1cccs1 (stereo unspecified) | 25 (≈ 64.4 µM) |  |  | 
COc1ccccc1-c1nc2cc(C3=NN(C(C)=O)C(c4cccs4)C3)ccc2o1 (stereo unspecified) | 25 (≈ 59.9 µM) |  |  | 
CC(=O)N1/C(=C/c2ccc(Oc3ccc(Cl)cc3)cc2)C(=O)c2ccccc21 |  | 6.2 (≈ 2.42 µg/mL) | 8.4 (≈ 3.27 µg/mL) | 
CC(=O)N1/C(=C/c2ccc(OCc3ccccc3)cc2)C(=O)c2ccccc21 |  | 1.89 (≈ 0.698 µg/mL) | 2.58 (≈ 0.953 µg/mL) | 
CC(=O)N1/C(=C/c2ccc(-c3ccccc3)cc2)C(=O)c2cc(C)ccc21 |  | > 20 | > 20 | 
CC(=O)N1N=C(c2ccc3oc(S)nc3c2)CC1c1cccs1 (stereo unspecified) | 6.25 (≈ 18.2 µM) |  |  | 
COC(=O)c1c(NC(=O)c2ccc(C)cc2)sc2c1CCCCC2 | > 20.2 |  |  | 
CCc1c(C)sc(NC(=O)c2c(F)c(F)c(F)c(F)c2F)c1C(=O)OC(C)C | 1 (≈ 2.37 µM) |  |  | 
CC(=O)N1/C(=C/c2ccc(-c3ccsc3)cc2)C(=O)c2ccccc21 |  | 0.336 (≈ 0.116 µg/mL) | 0.6 (≈ 0.207 µg/mL) | 
Sc1nnc(-c2ccccc2I)o1 | 15.2 (≈ 50 µM) |  |  | 
CCCC(=O)Nc1nc2cc(C3=NN(C(C)=O)C(c4cccs4)C3)ccc2o1 (stereo unspecified) | 12.5 (≈ 31.5 µM) |  |  | 
CC(=O)Nc1nc2cc(C3=NN(C(C)=O)C(c4cccs4)C3)ccc2o1 (stereo unspecified) | 25 (≈ 67.9 µM) |  |  | 
CC(=O)N1/C(=C/c2ccc(-c3cnn(C)c3)cc2)C(=O)c2ccccc21 |  | 3.16 (≈ 1.09 µg/mL) | 3.66 (≈ 1.26 µg/mL) | 
CC(=O)N1N=C(c2ccc3oc(-c4ccccc4Cl)nc3c2)CC1c1cccs1 (stereo unspecified) | 25 (≈ 59.3 µM) |  |  | 
Cc1c(C(N)=O)sc(NC(=O)c2c(F)c(F)c(F)c(F)c2F)c1C(=O)O | 78.4 (≈ 199 µM) |  |  | 
Sc1nnc(-c2ccc(-c3ccccc3)cc2)o1 | > 25 |  |  | 
COC(=O)c1c(NC(=O)c2ccccc2F)sc2c1CCCCC2 | 20.2 (≈ 58.1 µM) |  |  | 
CC(=O)N1N=C(c2ccc3oc(C(=O)c4ccccc4)nc3c2)CC1c1cccs1 (stereo unspecified) | 50 (≈ 120 µM) |  |  | 
COC(=O)c1c(NC(=O)c2c(F)c(F)c(F)c(F)c2F)sc(-c2ccc(Cl)cc2)c1C(=O)OC | 3.5 (≈ 6.73 µM) |  |  | 
CC(=O)N1N=C(c2ccc3oc(NC(=O)c4cccc(Cl)c4)nc3c2)CC1c1cccs1 (stereo unspecified) | 12.5 (≈ 26.9 µM) |  |  | 
COc1cc(-c2nc3cc(C4=NN(C(C)=O)C(c5cccs5)C4)ccc3o2)cc(OC)c1OC (stereo unspecified) | 25 (≈ 52.4 µM) |  |  | 
Sc1nnc(-c2ccc(Br)cc2)o1 | > 25 |  |  | 
COC(=O)c1sc(NC(=O)c2c(F)c(F)c(F)c(F)c2F)c(C(=O)ON)c1C | 4.9 (≈ 11.5 µM) |  |  | 
CC(=O)N1/C(=C/c2cccc(-c3ccccc3)c2)C(=O)c2ccccc21 |  | 4.49 (≈ 1.52 µg/mL) | 4.94 (≈ 1.68 µg/mL) | 

Structure (SMILES) | MIC [µg/mL] | MIC90 [µM] | MIC99 [µM] | MIC50 [µg/mL]
CC(=O)N1N=C(c2ccc3oc(-c4ccccc4)nc3c2)CC1c1cccs1 (stereo unspecified) | 25 (≈ 64.5 µM) |  |  | 
Oc1cc(O)cc(-c2nnc(S)o2)c1 | 21 (≈ 99.9 µM) |  |  | 
COc1cccc(-c2nc3cc(C4=NN(C(C)=O)C(c5cccs5)C4)ccc3o2)c1 (stereo unspecified) | 25 (≈ 59.9 µM) |  |  | 
CCOC(=O)c1sc(NC(=O)c2c(F)c(F)c(F)c(F)c2F)c(C(=O)OCC)c1C | 7.1 (≈ 15.7 µM) |  |  | 
O=[N+]([O-])c1ccc([N+](=O)[O-])c(-c2nnc(S)o2)c1 | 6.7 (≈ 25 µM) |  |  | 
O=[N+]([O-])c1ccc(F)c(-c2nnc(S)o2)c1 | > 25 |  |  | 
FC(F)(F)c1ccc(-c2nnc(S)o2)cc1 | > 25 |  |  | 
COC(=O)c1c(NC(=O)c2c(F)c(F)c(F)c(F)c2F)sc2c1CCC2 | 2.1 (≈ 5.37 µM) |  |  | 
Oc1ccc(-c2nnc(S)[nH]2)cc1O | 10.5 (≈ 50.2 µM) |  |  | 
NOC(=O)c1c(NC(=O)c2c(F)c(F)c(F)c(F)c2F)sc2c1CCCCC2 | 15.3 (≈ 36.4 µM) |  |  | 
COc1ccc(-c2nnc(S)o2)cc1 | 20.8 (≈ 99.9 µM) |  |  | 
CC(=O)N1N=C(c2ccc3oc(-c4ccncc4)nc3c2)CC1c1cccs1 (stereo unspecified) | 25 (≈ 64.4 µM) |  |  | 
CC(=O)N1/C(=C/c2cccc(-c3ccc(OC(F)(F)F)cc3)c2)C(=O)c2ccccc21 |  | > 20 | > 20 | 
CC(=O)N1N=C(c2ccc3oc(NC(=O)c4ccccc4Cl)nc3c2)CC1c1cccs1 (stereo unspecified) | 25 (≈ 53.8 µM) |  |  | 
COc1ccc(-c2nc3cc(C4=NN(C(C)=O)C(c5cccs5)C4)ccc3o2)cc1 (stereo unspecified) | 12.5 (≈ 29.9 µM) |  |  | 
CC(=O)N1N=C(c2ccc3oc(-c4cccnc4)nc3c2)CC1c1cccs1 (stereo unspecified) | 25 (≈ 64.4 µM) |  |  | 
CC(=O)N1N=C(c2ccc3oc(NC(=O)C(C)C)nc3c2)CC1c1cccs1 (stereo unspecified) | 25 (≈ 63.1 µM) |  |  | 
CC(=O)N1/C(=C/c2ccc(-c3ccc(OC(F)(F)F)cc3)cc2)C(=O)c2cc(Cl)ccc21 |  | > 20 | > 20 | 
CC(=O)N1/C(=C/c2ccc(-c3ccc(C(F)(F)F)cc3)cc2)C(=O)c2ccccc21 |  | 2.65 (≈ 1.08 µg/mL) | 4.3 (≈ 1.75 µg/mL) | 
CC(=O)N1/C(=C/c2cccc(-c3ccc(C(F)(F)F)cc3)c2)C(=O)c2ccccc21 |  | 11.6 (≈ 4.73 µg/mL) | 17.5 (≈ 7.13 µg/mL) | 
CC(=O)N1/C(=C/c2cccc(-c3ccsc3)c2)C(=O)c2ccccc21 |  | 3.19 (≈ 1.1 µg/mL) | 3.34 (≈ 1.15 µg/mL) | 
CC(=O)N1/C(=C/c2cccc(-c3ccc(F)cc3)c2)C(=O)c2ccccc21 |  | 5.1 (≈ 1.82 µg/mL) | 5.66 (≈ 2.02 µg/mL) | 
CC(=O)N1/C(=C/c2ccc(-c3cnc4ccccc4c3)cc2)C(=O)c2ccccc21 |  | 0.649 (≈ 0.253 µg/mL) | 0.736 (≈ 0.287 µg/mL) | 
NOC(=O)c1c(NC(=O)c2c(F)c(F)c(F)c(F)c2F)sc2c1CCC2 | 10.6 (≈ 27 µM) |  |  | 
COc1ccccc1C(=O)Nc1nc2cc(C3=NN(C(C)=O)C(c4cccs4)C3)ccc2o1 (stereo unspecified) | 25 (≈ 54.3 µM) |  |  | 
CCn1cc(C(=O)O)c(=O)c2cc(F)c(-n3cccc3)cc21 [IRLOXACIN] |  |  |  | 8 (≈ 26.6 µM)
